Read-outs that look alike come from different tables or passages of the source.
Key:
[1] = Plasma concentrations of tamoxifen and its metabolites by LC-MS/MS in breast cancer patients on adjuvant tamoxifen; type: in vivo, human; settings: for Plasma concentration (median + IQR): 81 Ethiopian breast cancer patients, tamoxifen 20 mg/day for at least three months; for MR E/NDM: listed as E
Experimental: This study was conducted at the radiotherapy center of Tikur Anbessa specialized hospital, Addis Ababa University, Addis Ababa, Ethiopia. A total of 81 female breast cancer patients who were on adjuvant tamoxifen were enrolled. These patients had completed a full course of chemotherapy and were on tamoxifen 20 mg/day for at least three months. None of the study participants were taking any known CYP2D6 enzyme inhibitor as co-medication. The study protocol was approved by the Institutional Review Board (IRB) of the College of Health Sciences, Addis Ababa University (AAU) (Ref No: 011/16/2016), the Armauer Hansen Research Institute Ethical Review Committee (AAERC) (Ref No: PO26/16) and the Ethiopian National Research Ethics Review Committee (NRERC) (Ref No: 3.10/235/2017). Signed informed consent was obtained from individual study participants prior to study enrolment. Patients’ demographic, clinical and tumor characteristics including age, menopausal status, performance status, weight, height, body mass index (BMI), histologic type of the tumor, degree of differentiation, tumor size, lymph node involvement, hormone receptor status and co-morbidity status were collected.
Blood samples were collected in EDTA tube, centrifuged at 2500 g for 10 minutes, and the separated plasma was stored at −80 °C until analysis. Tamoxifen (Tam) and its major metabolites N-desmethyltamoxifen (NDM), (Z)-4-hydroxytamoxifen (4-HT), and (Z)-endoxifen (E) were quantified in the TDM Laboratory, Department of Clinical Pharmacology, Karolinska Institutet (Stockholm, Sweden), by ultra-high-performance liquid chromatography (UHPLC) followed by electrospray tandem mass spectrometry (LC-MS/MS). Briefly, 400 µL internal standard solution (containing 2 ng/mL of Z/E-endoxifen-d5, and 4-OH-tamoxifen-d5, and 20 ng/mL of N-desmethyl-tamoxifen-d5, and tamoxifen-d5) was added to 200 µL of thawed plasma samples and mixed for 10 minutes in a micro plate shaker (Vx-2400 Multitube mixer, Troemner, Philadelphia, USA), followed by centrifugation at 3400 rpm at 4 °C for 10 min. The supernatant was then transferred to new glass vial and evaporated to dryness using vacuum centrifuge. The residue was dissolved in 50 µL methanol over a microplate shaker for 10 min and the resulting solution was then centrifuged at 3400 rpm for 10 min at 4 °C. Ten microliter (10 µL) of the solution was injected into the LC system (Dionex Ultimate 3000, UHPLC focused, Thermo Scientific, California, USA) coupled with a mass spectrometer (TSQ Quantiva, Thermo Scientific). Separation occurred on an Accucore C-18 column (150 × 2.1 mm, Thermo Scientific). The mobile phase for gradient elution consisted of solution A (10 mmol/L ammonium formate with 0.005% formic acid in water) and solution B (10 mmol/L ammonium formate with 0.005% formic acid in 99% methanol). The LC conditions were: column oven temperature of 40 °C, flow rate of 0.50 mL/min, autosampler temperature of 10 °C. Detection was in positive ion mode using electrospray ionization and monitored using Trace Finder software (Thermo Scientific). Under this condition, the retention times were 3.25, 3.26, 3.38, 4.03, and 4.11 min for E-endoxifen, Z-endoxifen, 4-OH-tamoxifen, N-desmethyltamoxifen, and tamoxifen, respectively. Calibration curves were constructed by plotting the ratio of the area of the compound and the internal standard against the standard analyte concentration. Three quality control (QC) samples involving, (i) low-level QC [QCL] (0.3 ng/mL of E and 4-HT and 3 ng/mL of NDM and Tam, (ii) mid-level QC [QCM] (8 ng/mL of E and 4-HT and 80 ng/mL of NDM and Tam), and (iii) high level QC [QCH] (80 ng/mL of E and 4-HT and 800 ng/mL of NDM and Tam) were also included at each run.
Descriptive statistics were computed to explore the demographic characteristics, clinical profiles, genotype frequencies of participants. Chi-square test was used to compare the observed and expected genotype frequency according to Hardy–Weinberg equilibrium. […]

[2] = cited from earlier work
[3] = parameters: method as in PMID 21430657; settings: endoxifen concentration >5.97 ng/mL; cited from earlier work
[4] = tested on: estrogen receptor (ER); parameters: method as in PMID 21451508; settings: endoxifen level 13 nM; cited from earlier work
[5] = UGT2B15 c.1568A>C (rs4148269) wild type genotype
[6] = ABCB1 c.4036A>G (rs3842) wild type genotype
[7] = carriers of the G allele for ABCB1 c.4036A>G (rs3842)

CC/C(=C(\c1ccc(O)cc1)c1ccc(OCCN(C)C)cc1)c1ccccc1 [4-Hydroxy-tamoxifen, 4-hydroxy-tamoxifen]
Plasma concentration (median + IQR) [1]: 3.04 (2.15–4.0) ng/mL | Plasma concentration (median + IQR) ([1]; listed as 4-HT): 3.04 ng/mL | Metabolic ratio of 4-Hydroxy-tamoxifen to tamoxifen, MR 4-HT/Tam (median + IQR) ([1]; 81 patients, plasma): 0.022 (0.016–0.029)

CC/C(=C(\c1ccccc1)c1ccc(OCCNC)cc1)c1ccccc1 [N-Desmethyl-tamoxifen, N-desmethyltamoxifen]
Plasma concentration (median + IQR) [1]: 257 (185.5–343) ng/mL | Metabolic ratio of N-desmethyl-tamoxifen to tamoxifen, MR NDM/Tam (median + IQR) ([1]; human, in vivo): 1.81 (1.51–2.26)

CC/C(=C(\c1ccccc1)c1ccc(OCCN(C)C)cc1)c1ccccc1 [Tamoxifen]
Plasma concentration (median + IQR) [1]: 138 (105–200.5) ng/mL | Median plasma concentration [1, 5]: 173.8 ng/mL | Median plasma concentration ([1]; patients with at least one variant allele for UGT2B15 c.1568A>C (rs4148269)): 125.9 ng/mL | Plasma tamoxifen concentration of all included patients ([1]; the 81 patients included in the analysis): > 150 nM

CC/C(=C(\c1ccc(O)cc1)c1ccc(OCCNC)cc1)c1ccccc1 [Z-Endoxifen, (Z)-endoxifen]
Proportion of PMs still able to generate therapeutic concentrations of endoxifen ([2]; CYP2D6 PMs, threshold 5.9 ng/mL): 24% | Proportion of CYP2D6 PMs below endoxifen level of 13 nM ([2]; CYP2D6 poor metabolizers): 93% | Endoxifen plasma concentration lower than without CYP2D6 inhibitors ([2]; IMs on CYP2D6 inhibitors vs IMs not on CYP2D6 inhibitors): 38% | Endoxifen plasma concentration lower than without CYP2D6 inhibitors ([2]; NMs taking CYP2D6 inhibitors vs NMs not on CYP2D6 inhibitors): 58% | Proportion of patients unable to attain therapeutic threshold for endoxifen ([2]; Sweden): 30% | Proportion of patients unable to attain therapeutic threshold for endoxifen ([2]; U.S.): 20% | Median endoxifen concentration relative to 4-HT ([1]; 7.94 vs 3.04 ng/mL): 2.6 times | Plasma concentration (median + IQR) [1]: 7.94 (4.68–13.75) ng/mL | Plasma concentration (median + IQR) ([1]; listed as endoxifen): 7.94 ng/mL | Metabolic ratio of endoxifen to 4-hydroxy-tamoxifen, MR E/4-HT (median + IQR) ([1]; 81 patients, plasma): 2.85 (2.10–3.73) | Metabolic ratio of endoxifen to N-desmethyl-tamoxifen, MR E/NDM (median + IQR) ([1]; 81 patients, plasma): 0.038 (0.021–0.06) | MR E/4-HT [1, 6]: 3.02 | MR E/NDM [1, 6]: 0.041 | Patients with low endoxifen concentration (<5.9 ng/mL) / patients in group ([1]; CYP2D6 IM/IM diplotype): 1/1 | Patients with low endoxifen concentration (<5.9 ng/mL) / patients in group ([1]; CYP2D6 IM/PM diplotype): 3/3 | Proportion of patients with low endoxifen concentration (<5.9 ng/mL) ([1]; CYP2D6 NM/IM diplotype (5/12)): 41.7% | Proportion of patients with low endoxifen concentration (<5.9 ng/mL) ([1]; CYP2D6 NM/NM diplotype (11/35)): 31.4% | Proportion of patients with low endoxifen concentration (<5.9 ng/mL) ([1]; CYP2D6 NM/PM diplotype (6/9)): 66.7% | Patients with low endoxifen concentration (<5.9 ng/mL) / patients in group ([1]; CYP2D6 PM/PM diplotype): 1/1 | Median E/4-HT ratio [1, 5]: 2.06 | Proportion of patients with low endoxifen concentration (<5.9 ng/mL) ([1]; all 81 patients): 35.8% | Median E/4-HT ratio ([1]; carriers of C allele for UGT2B15 c.1568A>C (rs4148269)): 2.96 | MR E/4-HT [1, 7]: 2.52 | MR E/NDM [1, 7]: 0.022 | Lower risk of additional breast cancer events [3]: 30% | Occupancy of the estrogen receptor (ER) in vitro [4]: 90%
